Values after ≈ are worked out from the molar mass of the structure shown. Blank lines part the entries; values can stand above or below the compound they belong to. Active and inactive are the calls of the source. No cut-off for these calls is given here.
Key:
Candida albicans [1] = experiment: Antifungal activity against fluconazole-resistant Candida albicans 901 assessed as inhibition of fungal growth incubated for 72 hrs by CLSI based liquid medium microdilution method; type: functional
Pichia kudriavzevii = experiment: Antifungal activity against Candida krusei ATCC 6258 assessed as inhibition of fungal growth incubated for 72 hrs by CLSI based liquid medium microdilution method; type: functional
Cryptococcus neoformans = experiment: Antifungal activity against Cryptococcus neoformans ZKCC 2209 assessed as inhibition of fungal growth incubated for 72 hrs by CLSI based liquid medium microdilution method; type: functional
Candida albicans [2] = experiment: Antifungal activity against fluconazole-resistant Candida albicans 17# assessed as inhibition of fungal growth incubated for 72 hrs by CLSI based liquid medium microdilution method; type: functional
Candida tropicalis = experiment: Antifungal activity against Candida tropicalis ATCC 1369 assessed as inhibition of fungal growth incubated for 72 hrs by CLSI based liquid medium microdilution method; type: functional
Candida albicans [3] = experiment: Antifungal activity against fluconazole-resistant Candida albicans 904 assessed as inhibition of fungal growth incubated for 72 hrs by CLSI based liquid medium microdilution method; type: functional
Aspergillus fumigatus = experiment: Antifungal activity against Aspergillus fumigatus KM8001 assessed as inhibition of fungal growth incubated for 72 hrs by CLSI based liquid medium microdilution method; type: functional
Candida albicans [4] = experiment: Antifungal activity against Candida albicans ATCC SC5314 assessed as inhibition of fungal growth incubated for 72 hrs by CLSI based liquid medium microdilution method; type: functional
Candida albicans [5] = experiment: Antifungal activity against fluconazole-resistant Candida albicans CaR assessed as inhibition of fungal growth incubated for 72 hrs by CLSI based liquid medium microdilution method; type: functional
Candida albicans [6] = experiment: Antifungal activity against fluconazole-resistant Candida albicans 632 assessed as inhibition of fungal growth incubated for 72 hrs by CLSI based liquid medium microdilution method; type: functional
[7] = target: T1, Lanosterol 14-alpha demethylase (Candida albicans (strain SC5314 / ATCC MYA-2876) (Yeast), UniProt P10613); experiment: Inhibition of Candida albicans ATCC SC5314 CYP51 assessed as ergosterol content at 4 ug/ml measured after 16 hrs by GC-MS analysis (reference value: 92.71%); set-up: scale not given: the % may be the effect or the level left; details: at 4 µg/mL
T1 sequence (P10613 whole entry): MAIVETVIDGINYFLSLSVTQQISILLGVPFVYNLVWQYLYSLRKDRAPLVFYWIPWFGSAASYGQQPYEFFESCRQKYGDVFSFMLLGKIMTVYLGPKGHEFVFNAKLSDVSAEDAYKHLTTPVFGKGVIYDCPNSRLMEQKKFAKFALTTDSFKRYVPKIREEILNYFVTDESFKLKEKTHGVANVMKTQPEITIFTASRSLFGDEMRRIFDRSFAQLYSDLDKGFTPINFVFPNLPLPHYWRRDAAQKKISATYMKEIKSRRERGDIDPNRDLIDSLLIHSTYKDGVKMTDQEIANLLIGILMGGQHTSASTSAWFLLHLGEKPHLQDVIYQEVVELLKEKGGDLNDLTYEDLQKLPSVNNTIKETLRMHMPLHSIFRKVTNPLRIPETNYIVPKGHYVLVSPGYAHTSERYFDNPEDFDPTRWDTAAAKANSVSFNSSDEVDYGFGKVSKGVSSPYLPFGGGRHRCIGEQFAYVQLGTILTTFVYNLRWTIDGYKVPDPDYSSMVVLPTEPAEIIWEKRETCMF

[8] = target: Programmed cell death 1 ligand 1 (Homo sapiens, UniProt Q9NZQ7); experiment: Binding affinity to PD-L1 (unknown origin) assessed as dissociation constant by SPR analysis
Chain of Programmed cell death 1 ligand 1 (Q9NZQ7 whole entry): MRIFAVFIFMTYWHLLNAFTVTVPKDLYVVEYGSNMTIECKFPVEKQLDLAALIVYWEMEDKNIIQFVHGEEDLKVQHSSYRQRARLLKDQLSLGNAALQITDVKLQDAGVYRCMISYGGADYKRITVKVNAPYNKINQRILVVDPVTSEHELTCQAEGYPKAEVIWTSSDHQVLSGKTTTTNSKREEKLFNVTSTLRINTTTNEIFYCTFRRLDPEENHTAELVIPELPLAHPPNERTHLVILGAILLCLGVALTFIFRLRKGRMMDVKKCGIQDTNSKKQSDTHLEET

Candida albicans [9] = experiment: In vivo antifungal activity against Candida albicans ATCC SC5314 infected in BALB/c mouse assessed as decrease in NLRP3 expression level at 10 ug, ip for 14 days by Western blot analysis; type: functional, organism-based; details: dose 10.0 µg, time 14.0 day
Candida albicans [10] = experiment: Antifungal activity against Candida albicans ATCC SC5314 assessed as change in osmotic pressure at 1 microM/ml incubated for 48 hrs by absorbance based assay; type: functional, organism-based
Candida albicans [11] = experiment: In vivo antifungal activity against Candida albicans ATCC SC5314 infected in BALB/c mouse assessed as decrease in PD-L1 expression level at 10 ug, ip for 14 days by Western blot analysis; type: functional, organism-based; details: dose 10.0 µg, time 14.0 day
[12] = target: T1, Lanosterol 14-alpha demethylase; experiment: Inhibition of Candida albicans ATCC SC5314 CYP51 assessed as other unknown sterol content at 4 ug/ml measured after 16 hrs by GC-MS analysis (Rvb= 3.82%); set-up: scale not given: the % may be the effect or the level left; details: at 4 µg/mL
Candida albicans [13] = experiment: Induction of mitochondrial membrane depolarization in Candida albicans ATCC SC5314 assessed as polarized cells at 1 microM/ml incubated for 24 hrs by JC-1 staining based flow cytometry assay (reference value: 0.28 +/- 0.02%); type: functional
Candida albicans [14] = experiment: Induction of mitochondrial membrane depolarization in Candida albicans ATCC SC5314 assessed as depolarized cells at 1 microM/ml incubated for 24 hrs by JC-1 staining based flow cytometry assay (reference value: 0.3 to 5.1%); type: functional
[15] = target: Programmed cell death protein 1/Programmed cell death 1 ligand 1 (Homo sapiens, UniProt Q9NZQ7); experiment: Inhibition of PD-1/PD-L1 interaction (unknown origin) incubated for 15 mins by ELISA; type: protein-complex assay
Chain of Programmed cell death protein 1/Programmed cell death 1 ligand 1 (Q15116 whole entry): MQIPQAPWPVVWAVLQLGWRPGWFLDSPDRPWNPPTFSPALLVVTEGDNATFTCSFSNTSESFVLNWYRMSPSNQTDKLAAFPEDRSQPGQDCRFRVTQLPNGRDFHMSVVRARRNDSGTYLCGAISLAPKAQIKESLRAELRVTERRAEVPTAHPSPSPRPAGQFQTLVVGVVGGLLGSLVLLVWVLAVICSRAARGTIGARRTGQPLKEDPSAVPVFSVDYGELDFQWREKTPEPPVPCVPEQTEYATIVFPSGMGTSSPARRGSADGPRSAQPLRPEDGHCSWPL
Chain of Programmed cell death protein 1/Programmed cell death 1 ligand 1 (Q9NZQ7 whole entry): as the sequence (Q9NZQ7 whole entry) above

Candida albicans [16] = experiment: Induction of apoptosis in Candida albicans ATCC SC5314 assessed as early apoptotic cells at 1 microM/ml incubated for 48 hrs by Hoechst 33258/PI staining based flow cytometry (Rvb= 5.1 +/- 0.3%); type: functional
Candida albicans [17] = experiment: Induction of apoptosis in Candida albicans ATCC SC5314 assessed as increase in blue fluorescence intensity at 1 microM/ml incubated for 48 hrs by Hoechst 33258/PI staining based fluorescence microscopy; type: functional, organism-based
Candida albicans [18] = experiment: In vivo antifungal activity against Candida albicans ATCC SC5314 infected in BALB/c mouse assessed as decrease in IFN-gamma expression level at 10 ug, ip for 14 days by Western blot analysis; type: functional, organism-based; details: dose 10.0 µg, time 14.0 day
Candida albicans [19] = experiment: In vivo antifungal activity against Candida albicans ATCC SC5314 infected in BALB/c mouse assessed as decrease in COX2 expression level at 10 ug, ip for 14 days by Western blot analysis; type: functional, organism-based; details: dose 10.0 µg, time 14.0 day
Candida albicans [20] = experiment: Induction of apoptosis in Candida albicans ATCC SC5314 assessed as necrotic cells at 1 microM/ml incubated for 48 hrs by Hoechst 33258/PI staining based flow cytometry (Rvb= 0.03 +/- 0.01%); type: functional
Candida albicans [21] = experiment: Induction of mitochondrial membrane depolarization in Candida albicans ATCC SC5314 assessed as normal cells at 1 microM/ml incubated for 24 hrs by JC-1 staining based flow cytometry assay (reference value: 94.4 +/- 1.15%); type: functional
Candida albicans [22] = experiment: Antifungal activity against Candida albicans ATCC SC5314 assessed as decrease in fungal cell density at 1 microM/ml incubated for 48 hrs by absorbance based assay; type: functional, organism-based
Candida albicans [23] = experiment: Induction of apoptosis in Candida albicans ATCC SC5314 assessed as normal cells at 1 microM/ml incubated for 48 hrs by Hoechst 33258/PI staining based flow cytometry (Rvb= 94.8 +/- 0.3%); type: functional
Candida albicans [24] = experiment: Induction of ROS generation in Candida albicans ATCC SC5314 assessed as increase in fluorescence intensity at 1 microM/ml incubated for 48 hrs by fluorescent microscopy; type: functional, organism-based
[25] = target: T1, Lanosterol 14-alpha demethylase; experiment: Inhibition of Candida albicans ATCC SC5314 CYP51 using lanosterol as substrate incubated for 30 mins by HPLC assay
[26] = target: T1, Lanosterol 14-alpha demethylase; experiment: Inhibition of Candida albicans ATCC SC5314 CYP51 assessed as eburicol content at 4 ug/ml measured after 16 hrs by GC-MS analysis (Rvb= 3.47%); set-up: scale not given: the % may be the effect or the level left; details: at 4 µg/mL
Candida albicans [27] = experiment: Antifungal activity against Candida albicans ATCC SC5314 assessed as change in structural stability at 1 microM/ml incubated for 48 hrs by absorbance based assay; type: functional, organism-based
[28] = target: T1, Lanosterol 14-alpha demethylase; experiment: Inhibition of Candida albicans ATCC SC5314 CYP51 assessed as lanosterol content at 4 ug/ml measured after 16 hrs by GC-MS analysis relative to control; set-up: scale not given: the % may be the effect or the level left; details: at 4 µg/mL
Candida albicans [29] = experiment: Induction of apoptosis in Candida albicans ATCC SC5314 assessed as late apoptotic cells at 1 microM/ml incubated for 48 hrs by Hoechst 33258/PI staining based flow cytometry (Rvb= 0.05 +/- 0.01%); type: functional

Structure (SMILES): CC(=O)N1CCN(c2ccc(OCC3COC(Cn4ccnc4)(c4ccc(Cl)cc4Cl)O3)cc2)CC1 (stereo not drawn) [KETOCONAZOLE]
MIC50 (Candida albicans [1]): 4 µg/mL (≈ 7.53 µM)
MIC50 (Pichia kudriavzevii): 1 µg/mL (≈ 1.88 µM)
MIC50 (Cryptococcus neoformans): 1 µg/mL (≈ 1.88 µM)
MIC50 (Candida albicans [2]): 2 µg/mL (≈ 3.76 µM)
MIC50 (Candida tropicalis): 0.5 µg/mL (≈ 0.941 µM)
MIC50 (Candida albicans [3]): > 8 µg/mL
MIC50 (Aspergillus fumigatus): 4 µg/mL (≈ 7.53 µM)
MIC50 (Candida albicans [4]): 2 µg/mL (≈ 3.76 µM)
MIC50 (Candida albicans [5]): 4 µg/mL (≈ 7.53 µM)
MIC50 (Candida albicans [6]): > 8 µg/mL

MIC50 (Pichia kudriavzevii): 0.5 µg/mL (≈ 1.37 µM)
MIC50 (Cryptococcus neoformans): 1 µg/mL (≈ 2.74 µM)
MIC50 (Candida tropicalis): 1 µg/mL (≈ 2.74 µM)
MIC50 (Aspergillus fumigatus): 2 µg/mL (≈ 5.48 µM)
MIC50 (Candida albicans [4]): 1 µg/mL (≈ 2.74 µM)
Structure (SMILES): O=C(NCc1ccccc1)c1nc(-n2cncn2)c2cc(Cl)ccc2n1

MIC50 (Pichia kudriavzevii): 1 µg/mL (≈ 2.79 µM)
MIC50 (Cryptococcus neoformans): 0.5 µg/mL (≈ 1.4 µM)
MIC50 (Candida tropicalis): 0.5 µg/mL (≈ 1.4 µM)
MIC50 (Aspergillus fumigatus): 2 µg/mL (≈ 5.58 µM)
MIC50 (Candida albicans [4]): 0.5 µg/mL (≈ 1.4 µM)
Structure (SMILES): CC(=O)c1ccc(NC(=O)c2nc(-n3cncn3)c3ccccc3n2)cc1

MIC50 (Pichia kudriavzevii): 4 µg/mL (≈ 9.9 µM)
MIC50 (Cryptococcus neoformans): 2 µg/mL (≈ 4.95 µM)
MIC50 (Candida tropicalis): 4 µg/mL (≈ 9.9 µM)
MIC50 (Aspergillus fumigatus): > 8 µg/mL
MIC50 (Candida albicans [4]): > 8 µg/mL
Structure (SMILES): O=C(NC1CCCc2ccccc21)c1nc(-n2ccnc2)c2cc(Cl)ccc2n1 (stereo not drawn)

MIC50 (Pichia kudriavzevii): 1 µg/mL (≈ 2.13 µM)
MIC50 (Cryptococcus neoformans): 2 µg/mL (≈ 4.27 µM)
MIC50 (Candida tropicalis): 0.5 µg/mL (≈ 1.07 µM)
MIC50 (Aspergillus fumigatus): 4 µg/mL (≈ 8.54 µM)
MIC50 (Candida albicans [4]): 2 µg/mL (≈ 4.27 µM)
Structure (SMILES): CC(=O)c1ccc(C(=O)N2CCC(NC(=O)c3nc(-n4ccnc4)c4ccccc4n3)CC2)cc1

Structure (SMILES): CC(=O)c1ccc(NC(=O)c2nc(-n3ccnc3)c3ccccc3n2)cc1
MIC50 (Candida albicans [1]): > 8 µg/mL
MIC50 (Pichia kudriavzevii): 1 µg/mL (≈ 2.8 µM)
Activity [7]: 21.53%
MIC50 (Cryptococcus neoformans): 1 µg/mL (≈ 2.8 µM)
MIC50 (Candida albicans [2]): 2 µg/mL (≈ 5.6 µM)
Kd [8]: 34.5 nM
MIC50 (Candida tropicalis): 1 µg/mL (≈ 2.8 µM)
Activity (Candida albicans [9]): Active
Activity (Candida albicans [10]): Active
Activity (Candida albicans [11]): Active
Activity [12]: 6.14%
MIC50 (Candida albicans [3]): 4 µg/mL (≈ 11.2 µM)
Activity (Candida albicans [13]): 0.07%
Activity (Candida albicans [14]): 0.16%
MIC50 (Aspergillus fumigatus): 2 µg/mL (≈ 5.6 µM)
IC50 [15]: 83 nM
MIC50 (Candida albicans [4]): 0.5 µg/mL (≈ 1.4 µM)
Activity (Candida albicans [16]): 44.8%
MIC50 (Candida albicans [5]): 4 µg/mL (≈ 11.2 µM)
Activity (Candida albicans [17]): Active
Activity (Candida albicans [18]): Active
Activity (Candida albicans [19]): Active
Activity (Candida albicans [20]): 0.03%
Activity (Candida albicans [21]): 77.1%
Activity (Candida albicans [22]): Active
Activity (Candida albicans [23]): 55.1%
MIC50 (Candida albicans [6]): 2 µg/mL (≈ 5.6 µM)
Activity (Candida albicans [24]): Active
IC50 [25]: 884 nM
Activity [26]: 41.69%
Activity (Candida albicans [27]): Active
Activity [28]: 20.64%
Activity (Candida albicans [29]): 0.13%

MIC50 (Pichia kudriavzevii): 1 µg/mL (≈ 2.75 µM)
MIC50 (Cryptococcus neoformans): 4 µg/mL (≈ 11 µM)
MIC50 (Candida tropicalis): 2 µg/mL (≈ 5.5 µM)
MIC50 (Aspergillus fumigatus): 4 µg/mL (≈ 11 µM)
MIC50 (Candida albicans [4]): 2 µg/mL (≈ 5.5 µM)
Structure (SMILES): O=C(NCc1ccccc1)c1nc(-n2ccnc2)c2cc(Cl)ccc2n1

MIC50 (Pichia kudriavzevii): 1 µg/mL (≈ 2.33 µM)
MIC50 (Cryptococcus neoformans): 0.5 µg/mL (≈ 1.17 µM)
MIC50 (Candida tropicalis): 1 µg/mL (≈ 2.33 µM)
MIC50 (Aspergillus fumigatus): 2 µg/mL (≈ 4.66 µM)
MIC50 (Candida albicans [4]): 0.5 µg/mL (≈ 1.17 µM)
Structure (SMILES): CS(=O)(=O)c1ccc(NC(=O)c2nc(-n3cncn3)c3cc(Cl)ccc3n2)cc1

MIC50 (Pichia kudriavzevii): 2 µg/mL (≈ 4.67 µM)
MIC50 (Cryptococcus neoformans): 0.5 µg/mL (≈ 1.17 µM)
MIC50 (Candida tropicalis): 2 µg/mL (≈ 4.67 µM)
MIC50 (Aspergillus fumigatus): 4 µg/mL (≈ 9.35 µM)
MIC50 (Candida albicans [4]): 1 µg/mL (≈ 2.34 µM)
Structure (SMILES): CS(=O)(=O)c1ccc(NC(=O)c2nc(-n3ccnc3)c3cc(Cl)ccc3n2)cc1

MIC50 (Pichia kudriavzevii): 1 µg/mL (≈ 2.34 µM)
MIC50 (Cryptococcus neoformans): 2 µg/mL (≈ 4.68 µM)
MIC50 (Candida tropicalis): 1 µg/mL (≈ 2.34 µM)
MIC50 (Aspergillus fumigatus): 4 µg/mL (≈ 9.36 µM)
MIC50 (Candida albicans [4]): 1 µg/mL (≈ 2.34 µM)
Structure (SMILES): O=C(NC1CCN(C(=O)c2ccccc2)CC1)c1nc(-n2cncn2)c2ccccc2n1

MIC50 (Pichia kudriavzevii): 4 µg/mL (≈ 10.2 µM)
MIC50 (Cryptococcus neoformans): 2 µg/mL (≈ 5.1 µM)
MIC50 (Candida tropicalis): 1 µg/mL (≈ 2.55 µM)
MIC50 (Aspergillus fumigatus): > 8 µg/mL
MIC50 (Candida albicans [4]): 1 µg/mL (≈ 2.55 µM)
Structure (SMILES): CC(=O)c1ccc(NC(=O)c2nc(-n3ccnc3)c3cc(Cl)ccc3n2)cc1
